Measured values from PubChem BioAssay AID1918991 (Molecular Pharmacology Branch, DTP, NCI, 2023).

System: 186277-243-T-J2-PDC complex spheroid growth
Test: Anticancer human tumor 186277-243-T-J2-PDC patient-derived colon adenocarcinoma cell line growth inhibition [AhR]
Conditions: for IC50: curve of first compound; for viability, T/C: stronger effect = lower value
How it was run: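 Complex tumor spheroids co-cultured with HUVEC and human MSC stroma; AhR antagonists tested in combination with standard-of-care and investigational agents. Top concentration at or near clinical Cmax (else 10 microM), half-log dilutions; growth expressed as percent test/control.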
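Note: spheroids exposed to compounds for seven days before the viability read.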
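Throughout, for viability, T/C: luminescent signal used as a stand-in for viable cell amount; 100% = DMSO vehicle control wells.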

## Cn1ncnc1C1c2n[nH]c(=O)c3cc(F)cc(c23)NC1c1ccc(F)cc1 (stereo not given) + Cc1cncc(-c2nc(NCCc3c[nH]c4ccccc34)c3ncn(C(C)C)c3n2)c1
Second compound 0.1 µM
  IC50: > 100 nM
Second compound 0.316 µM
  IC50: > 100 nM
Second compound 1 µM
  IC50: > 100 nM
Second compound 3.16 µM
  IC50: > 100 nM
Second compound 10 µM
  IC50: > 100 nM
Second compound 0.1 µM, first compound 0.000316 µM
  viability, T/C: 89%
Second compound 0.1 µM, first compound 0.001 µM
  viability, T/C: 83.9%
Second compound 0.1 µM, first compound 0.00316 µM
  viability, T/C: 100%
Second compound 0.1 µM, first compound 0.01 µM
  viability, T/C: 107%
Second compound 0.1 µM, first compound 0.0316 µM
  viability, T/C: 115%
Second compound 0.1 µM, first compound 0.1 µM
  viability, T/C: 123%
Second compound 0.316 µM, first compound 0.000316 µM
  viability, T/C: 109%
Second compound 0.316 µM, first compound 0.001 µM
  viability, T/C: 103%
Second compound 0.316 µM, first compound 0.00316 µM
  viability, T/C: 95%
Second compound 0.316 µM, first compound 0.01 µM
  viability, T/C: 110%
Second compound 0.316 µM, first compound 0.0316 µM
  viability, T/C: 121%
Second compound 0.316 µM, first compound 0.1 µM
  viability, T/C: 135%
Second compound 1 µM, first compound 0.000316 µM
  viability, T/C: 92.5%
Second compound 1 µM, first compound 0.001 µM
  viability, T/C: 97.1%
Second compound 1 µM, first compound 0.00316 µM
  viability, T/C: 102%
Second compound 1 µM, first compound 0.01 µM
  viability, T/C: 107%
Second compound 1 µM, first compound 0.0316 µM
  viability, T/C: 130%
Second compound 1 µM, first compound 0.1 µM
  viability, T/C: 139%
Second compound 3.16 µM, first compound 0.000316 µM
  viability, T/C: 102%
Second compound 3.16 µM, first compound 0.001 µM
  viability, T/C: 95.3%
Second compound 3.16 µM, first compound 0.00316 µM
  viability, T/C: 99.3%
Second compound 3.16 µM, first compound 0.01 µM
  viability, T/C: 112%
Second compound 3.16 µM, first compound 0.0316 µM
  viability, T/C: 127%
Second compound 3.16 µM, first compound 0.1 µM
  viability, T/C: 128%
Second compound 10 µM, first compound 0.000316 µM
  viability, T/C: 77.4%
Second compound 10 µM, first compound 0.001 µM
  viability, T/C: 90.7%
Second compound 10 µM, first compound 0.00316 µM
  viability, T/C: 83.7%
Second compound 10 µM, first compound 0.01 µM
  viability, T/C: 66.9%
Second compound 10 µM, first compound 0.0316 µM
  viability, T/C: 69.6%
Second compound 10 µM, first compound 0.1 µM
  viability, T/C: 68%
